Laboratory results taken from patent publication US10342796B2, “Acrylanilide derivative, preparation method, and applications thereof in pharmacy” (Ancureall Pharmaceutical (Shanghai) Co., Ltd., priority 2015, dated 2019).
Read-outs that look alike come from different tables or passages of the source.

Legend:
Assay in all cases: Growth inhibition GI50 in vitro (CCK8/MTT, 72 h)
Assay type in all cases: cell-based, human
[1] = system: PC-9 (EGFR dE746-A750); settings: EGFR mutant cell line, range of GI50, read-out: GI50 PC-9
Protocol: (§1) PC-9ER is an acquired Erlotinib resistance cell line of PC-9 cells developed by the investor. […] The four cell lines above were cultured with 1×RPMI1640 complete medium (supplement with 10% FBS). Human colon cancer cell line SW48 (EGFR G719S positive, ATCC). was cultured with L15 complete medium (10% FB S).
(§2) The suspension cells were collected by centrifugation. The supernatant was discard and the cell pellet was resuspended and counted. Different cell concentrations (5˜10×10^4 cells/mL) were prepared according to the growth cycle of each cell line and then seeded on a 96-well plate (Corning), 100 μL/well. The cells were incubated over night at 37° C., 5% CO2. The compounds were added to the cells on the second day with 2 wells in parallel. The final concentration of organic solvent shall not exceed 1%. The cells were continually incubated for 72 h, and then subjected to MTT assay.
(§3) The present compounds and the reference compounds were dissolved with DMSO (Sigma), respectively. […] The storage concentration of compounds was 10 mM and kept at −20° C. They were diluted by 2 times or 10 times with serial dilution before using.
(§4) Dojindo CCK8 reagent kit was used as MTT assay. […] FC meter was used as microplate reader.
(§5) Adherent cell culture medium was discard and immediately replaced with fresh prepared medium which contains 10% CCK8 reagent (100 μL/well). For the suspension cells, CCK8 was directly added to 10% of the final concentration. The cells were continually incubated for 1˜4 h. When the color of control wells turned to dark yellow, the absorption value was measured at OD450 nm. The cell growth rate was calculated according to the following formula: cell growth rate (%)=100*(T−T0)/(C−T0), T=optical density of drug treatment cell well—optical density of blank control well; T0=optical density of cell well before drug treatment—optical density of blank control well; C=optical density of cell well of solvent control group—optical density of blank control well. […] The experiment was independently repeated 1˜3 times, and subject to biological statistical analysis.

[2] = system: H1975 (EGFR L858R/T790M); settings: EGFR mutant cell line, range of GI50, read-out: GI50 H1975
Protocol: as §1, §2, §3, §4, §5

[3] = system: HCC827 (EGFR dE746-A750); settings: EGFR mutant cell line, range of GI50, read-out: GI50 HCC827
Protocol: as §1, §2, §3, §4, §5

[4] = system: PC-9ER (EGFR delE746-A750/T790M); settings: EGFR mutant cell line, range of GI50, read-out: GI50 PC9ER
Protocol: as §1, §2, §3, §4, §5

[5] = system: H1299 (EGFR wt, Nras Q61K); settings: EGFR wild type cell line, range of GI50, read-out: GI50 H1299
Text: (§6) EGFR wild type cell lines: human epidermal cancer cell line A431 (EGFR WT, amplification and high expression, from Shanghai Cell Bank of Chinese Academy of Sciences and ATCC), NSCLC cell lines NCI-H460 (EGFR WT, Kras G61H and PI3KCA E545K mutants, ATCC) and NCI-H1299 (EGFR WT, ATCC), melanoma cell line A375 (EGFR WT and BRAF V600E mutant, from Shanghai Cell Bank of Chinese Academy of Sciences, ATCC), human lung cancer cell line NCI-H292 (EGFR WT, from human lung mucoepidermoid carcinoma/lymphatic metastasis, purchased from Shanghai Cell Bank of Chinese Academy of Sciences) were cultured with 1×RPMI1640 complete medium which was supplement with 10% FBS. NSCLC cell line A549 (EGFR WT and Kras G12S mutant, from Shanghai Cell Bank of Chinese Academy of Sciences) was cultured with 1×Ham'S F12K complete medium which was supplement with 10% FBS, 1% double-antibiotics and 2 mM glutamine.
as §2, §3, §4, §5

[6] = system: A431 (EGFR WT, amplification and high expression); settings: EGFR wild type cell line, range of GI50, read-out: GI50 A431
Text: as §6, §2, §3, §4, §5

[7] = system: H460 (EGFR wt, Kras G61H); settings: EGFR wild type cell line, range of GI50, read-out: GI50 H460
Text: as §6, §2, §3, §4, §5

[8] = system: A549 (EGFR WT); settings: EGFR wild type cell line, range of GI50, read-out: GI50 A549
Text: as §6, §2, §3, §4, §5

[9] = system: N87 (HER2 Amp); settings: HER2 positive cell line, range of GI50, read-out: GI50 N87
[10] = system: AU565 (Her2 amp); settings: HER2 positive cell line, range of GI50, read-out: GI50 AU-565
[11] = system: SK-BR-3 (Her2 amp); settings: HER2 positive cell line, range of GI50, read-out: GI50 SK-BR-3
Protocol: Human lung adenocarcinoma cell line Calu-3 (ATCC) was cultured with 1×MEM complete medium (10% FBS, 1% double-antibiotics, 1% NEAA (Gibco), 2 mM glutamine and 1 mM of sodium pyruvate). Human breast cancer cell line SK-BR-3 was cultured with McCOY'S5A complete medium (10% FBS). Human colon cancer cell line SNU1040 (HER2 V777M positive) (ATCC) and human bronchoalveolar adenocarcinoma cell line NCI-H1781 (expressing HER2 exon 20 G776VC mutation) (ATCC) were cultured with 1×RPMI1640 complete medium (10% FBS), respectively.
as §2, §3, §4, §5

SMILES	GI50 ([1]; Homo sapiens) [nM]	GI50 ([2]; Homo sapiens, NCI-H1975) [nM]	GI50 ([3]; Homo sapiens, HCC827) [nM]	GI50 ([4]; Homo sapiens, PC-9/ER) [nM]	GI50 ([5]; Homo sapiens, NCI-H1299) [nM]	GI50 ([6]; Homo sapiens, A-431) [nM]	GI50 ([7]; Homo sapiens, NCI-H460) [nM]	GI50 ([8]; Homo sapiens, A549) [nM]	GI50 ([9]; Homo sapiens) [nM]	GI50 ([10]; Homo sapiens, AU565) [nM]	GI50 ([11]; Homo sapiens, SK-BR-3) [nM]	further results
C=CC(=O)Nc1cc(Nc2nccc(Nc3cccc(Br)c3)n2)c(OC)cc1N(C)CCN(C)C [Compound 1, N-(5-(4-(3-bromophenylamino)-pyrimidin-2-ylamino)-2-(2-(dimethylamino-ethyl)-methyl-amino)-4-methoxyl-phenyl)-acrylamide]	10 to 100	10 to 100	< 10	10 to 100	> 1000	100 to 1000	> 1000	> 1000	10 to 100	10 to 100	10 to 100	
C=CC(=O)Nc1cc(Nc2nccc(Nc3cccc(F)c3)n2)c(OC)cc1N(C)CCN(C)C [Compound 3, N-(5-(4-(3-fluoro-phenylamino)-pyrimidin-2-ylamino)-2-(2-(dimethylamino-ethyl)-methyl-amino)-4-methoxyl-phenyl)-acrylamide]	< 10	10 to 100	< 10	< 10	> 1000	100 to 1000	> 1000	> 1000	10 to 100	10 to 100	10 to 100	
C#Cc1cccc(Nc2ccnc(Nc3cc(NC(=O)C=C)c(N(C)CCN(C)C)cc3OC)n2)c1 [Compound 8, N-(5-(4-(3-acetenyl-phenylamino)-pyrimidin-2-ylamino)-2-(2-(dimethylamino-ethyl)-methyl-amino)-4-methoxyl-phenyl)-acrylamide]												GI50 [1]: 10 to 100 nM; GI50 [2]: 10 to 100 nM; GI50 [3]: 10 to 100 nM; GI50 [4]: < 10 nM; GI50 [5]: > 1000 nM; GI50 [6]: 100 to 1000 nM; GI50 [7]: > 1000 nM; GI50 [8]: > 1000 nM; GI50 [9]: 10 to 100 nM; GI50 [10]: 100 to 1000 nM; GI50 [11]: 10 to 100 nM
C=CC(=O)Nc1cc(Nc2nccc(Nc3ccc(F)c(Cl)c3)n2)c(OC)cc1N(C)CCN(C)C [Compound 13, N-(5-(4-(3-chloro-4-fluorophenyl-amino)-pyrimidin-2-ylamino)-2-(2-(dimethylamino-ethyl)-methyl-amino)-4-methoxyl-phenyl)-acrylamide]	10 to 100	10 to 100	10 to 100	10 to 100	> 1000	100 to 1000	> 1000	> 1000	10 to 100	10 to 100	10 to 100	
C=CC(=O)Nc1cc(Nc2nccc(Nc3cccc(Cl)c3F)n2)c(OC)cc1N(C)CCN(C)C [Compound 14, N-(5-(4-(3-chloro-2-fluorophenyl-amino)-pyrimidin-2-ylamino)-2-(2-(dimethylamino-ethyl)-methyl-amino)-4-methoxyl-phenyl)-acrylamide]	10 to 100	100 to 1000	10 to 100	100 to 1000	> 1000	> 1000	> 1000	> 1000	100 to 1000	100 to 1000	100 to 1000	
C=CC(=O)Nc1cc(Nc2nccc(Nc3cc(OC)c(Cl)cc3Cl)n2)c(OC)cc1N(C)CCN(C)C [Compound 16, N-(5-(4-(2,4-dichloro-5-methoxyphenyl-amino)-pyrimidin-2-ylamino)-2-(2-(dimethylamino-ethyl)-methyl-amino)-4-methoxyl-phenyl)-acrylamide]	10 to 100	10 to 100	10 to 100	10 to 100	> 1000	> 1000	> 1000	> 1000	100 to 1000	100 to 1000	100 to 1000	
C=CC(=O)Nc1cc(Nc2nccc(Nc3ccc(OCc4ccccn4)c(Cl)c3)n2)c(OC)cc1N1CCC(N(C)C)CC1 [Compound 28]	10 to 100	10 to 100	10 to 100	10 to 100	> 1000	100 to 1000	> 1000	> 1000	10 to 100	10 to 100	10 to 100	
C=CC(=O)Nc1cc(Nc2nccc(N3CCc4ccccc43)n2)c(OC)cc1N(C)CCN(C)C [Compound 31]	10 to 100	10 to 100	10 to 100	< 10	> 1000	100 to 1000	> 1000	> 1000	100 to 1000	100 to 1000	100 to 1000	
C=CC(=O)Nc1cc(Nc2nccc(-n3ccc4ccccc43)n2)c(OC)cc1N(C)CCN(C)C [Compound 32]	10 to 100	10 to 100	10 to 100	< 10	> 1000	100 to 1000	> 1000	> 1000	10 to 100	10 to 100	100 to 1000	
C=CC(=O)Nc1cc(Nc2ncnc(Nc3cccc(Br)c3)n2)c(OC)cc1N1CCC(N2CCCCC2)CC1 [Compound 119, N-{2-[1,4′]-piperidin-1′-yl-5-[4-(3-bromo-phenylamino)-[1,3,5]triazin-2-amino]-4-methoxyl-phenyl}-acrylamide]	< 10	< 10	< 10			100 to 1000			< 10	< 10	10 to 100	
C=CC(=O)Nc1cc(Nc2ncnc(Nc3cccc(Br)c3)n2)c(OC)cc1N1CCCN(C)CC1 [Compound 130, N-[5-[4-(3-bromo-phenylamino)-[1,3,5]triazin-2-ylamino]-4-methoxyl-2-(4-methyl-[1,4]diazepane-1-yl)-phenyl]-acrylamide]	10 to 100	10 to 100	< 10			100 to 1000			< 10	< 10	10 to 100	
